The values below come from patent US7674807B2, “Heterocycle-substituted n-phenyl-phthalamide derivatives, related compounds and their use as insecticides” (Bayer CropScience AG, priority 2004, dated 2010).

For test [1], the system named is larva of Cnaphalocrocis medinalis Guenee. Kind of test: Test against larva of Cnaphalocrocis medinalis Guenee (sprayed paddy rice foliage). To be noted: 20 ppm concentration of the active component; second instar larvae; counted after 7 days; 25° C. Type of test: in vivo. The method, then:
Paddy rice (variety: Tamanishiki) planted in a pot was treated by spraying 50 ml per pot of the diluted aqueous solution of the prescribed concentration of the active compound prepared in the same manner as in the above-mentioned Biological Test Example 1. After the treated rice plant was dried in the air, their foliage part was cut in 4-5 cm length, which were put in a dish with 9 cm diameter with a sheet of filter paper and 2 ml of water. Five larvae of Cnaphalocrocis medinalis Guenee at the second instar were put in the dish that was placed in a room at the constant temperature of 25° C. After 2 and 4 days, each rest (each ⅓ amount) of foliage parts of rice plant were cut in the same manner and added to the dish. After 7 days the number of dead larvae was counted and the rate of death was calculated. In this test the results of 2 dishes at 1 section were averaged.

Test [2] deals with larva of Spodoptera litura. Kind of test: Test against larva of Spodoptera litura (leaf dip, sweet potato leaves). Type of test: in vivo. To be noted: 20 ppm concentration of the active component; third instar larvae; counted after 7 days; 25° C. The method, then:
Preparation of Test Solution:
In order to make an appropriate formulation of an active compound, 1 part by weight of the active compound was mixed with the above-mentioned amount of solvent containing the above-mentioned amount of emulsifier and the mixture was diluted with water to a prescribed concentration.
Leaves of sweet potato were soaked in the test solution diluted to a prescribed concentration with water, dried in the air and put in a dish of 9 cm diameter.
10 larvae of Spodoptera litura at the third instar were placed on the leaves and kept in a room at the constant temperature of 25° C. After 2 and 4 days further leaves of sweet potato were added and after 7 days the number of dead larvae was counted and the rate of death was calculated.
In this test the results of 2 dishes at 1 section were averaged.

Turning to `Cc1cc(Cn2nc(C(F)(F)F)nc2C(F)(F)F)ccc1NC(=O)c1cccc(Cl)c1C(=O)NC(C)(C)CS(C)(=O)=O` [compound 139], the “controlling effect, rate of death” value in test [1] and in test [2] was 100% throughout.

As to `Cc1cc(Cn2nc(C(F)(F)F)nc2C(F)(F)F)ccc1NC(=O)c1cccc(Cl)c1C(=O)NC(C)C[S+](C)[O-]` (stereo not drawn) [compound 142], the “controlling effect, rate of death” value in test [1] and in test [2] was 100% each time.

Consider `Cc1cc(Cn2nc(C(F)(F)F)nc2C(F)(F)F)ccc1NC(=O)c1cccc(Cl)c1C(=O)NC(C)C[S+](C)[O-]` (stereo not drawn) [compound 143], for which the “controlling effect, rate of death” value in test [1] and in test [2] was 100% throughout.

With `Cc1cc(Cn2nc(C(F)(F)F)nc2C(F)(F)F)ccc1NC(=O)c1cccc(Cl)c1C(=O)NC(C)CS(C)(=O)=O` (stereo not drawn) [compound 145], the “controlling effect, rate of death” value in test [1] and in test [2] was 100% each time.

In the case of `CSCC(C)(C)NC(=O)c1c(Cl)cccc1C(=O)Nc1ccc(Cn2nc(C(F)(F)C(F)(F)F)nc2C(F)(F)F)cc1C` [compound 149], the “controlling effect, rate of death” value in test [1] and in test [2] was 100% each time.

With `Cc1cc(Cn2nc(C(F)(F)C(F)(F)F)nc2C(F)(F)F)ccc1NC(=O)c1cccc(Cl)c1C(=O)NC(C)(C)C[S+](C)[O-]` (stereo not drawn) [compound 150], the “controlling effect, rate of death” value in test [1] and in test [2] was 100% throughout.

As to `CSCC(C)NC(=O)c1c(Cl)cccc1C(=O)Nc1ccc(Cn2nc(C(F)(F)C(F)(F)F)nc2C(F)(F)F)cc1C` (stereo not drawn) [compound 153], the “controlling effect, rate of death” value in test [1] and in test [2] was 100% each time.

On to `Cc1cc(Cn2nc(C(F)(F)C(F)(F)F)nc2C(F)(F)F)ccc1NC(=O)c1cccc(Cl)c1C(=O)NC(C)C[S+](C)[O-]` (stereo not drawn) [compound 155], for which the “controlling effect, rate of death” value in test [1] and in test [2] was 100% each time.

`Cc1cc(Cn2nc(C(F)(F)C(F)(F)F)nc2C(F)(F)F)ccc1NC(=O)c1cccc(Cl)c1C(=O)NC(C)CS(C)(=O)=O` (stereo not drawn) [compound 157]: the “controlling effect, rate of death” value in test [1] and in test [2] was 100% throughout.

In the case of `CSCC(C)NC(=O)c1c(Br)cccc1C(=O)Nc1ccc(Cn2nc(C(F)(F)F)nc2C(F)(F)F)cc1C` (stereo not drawn) [compound 177], the “controlling effect, rate of death” value in test [1] and in test [2] was 100% each time.

With `Cc1cc(Cn2nc(C(F)(F)F)nc2C(F)(F)F)ccc1NC(=O)c1cccc(Br)c1C(=O)NC(C)CS(C)(=O)=O` (stereo not drawn) [compound 182], the “controlling effect, rate of death” value in test [1] and in test [2] was 100% throughout.

For `Cc1cc(Cn2nc(C(F)(F)F)nc2C(F)(F)F)ccc1NC(=O)c1cccc(I)c1C(=O)NC(C)C` [compound 210], the “controlling effect, rate of death” value in test [1] and in test [2] was 100% in each case.

In the case of `Cc1cc(Cn2nc(C(F)(F)F)nc2C(F)(F)F)ccc1NC(=O)c1cccc(I)c1C(=O)NC(C)(C)C[S+](C)[O-]` (stereo not drawn) [compound 212], the “controlling effect, rate of death” value in test [1] and in test [2] was 100% throughout.

Take `Cc1cc(Cn2nc(C(F)(F)F)nc2C(F)(F)F)ccc1NC(=O)c1cccc(I)c1C(=O)NC(C)C[S+](C)[O-]` (stereo not drawn) [compound 216]: the “controlling effect, rate of death” value in test [1] and in test [2] was 100% each time.

Regarding `Cc1cc(Cn2nc(C(F)(F)F)nc2C(F)(F)F)ccc1NC(=O)c1cccc(I)c1C(=O)NC(C)C[S+](C)[O-]` (stereo not drawn) [compound 217], the “controlling effect, rate of death” value in test [1] and in test [2] was 100% in each case.

Turning to `Cc1cc(Cn2nc(C(F)(F)F)nc2C(F)(F)F)ccc1NC(=O)c1cccc(I)c1C(=O)NC(C)CS(C)(=O)=O` (stereo not drawn) [compound 219], the “controlling effect, rate of death” value in test [1] and in test [2] was 100% throughout.

On to `CC[S+]([O-])CC(C)NC(=O)c1c(I)cccc1C(=O)Nc1ccc(Cn2nc(C(F)(F)F)nc2C(F)(F)F)cc1C` (stereo not drawn) [compound 221], for which the “controlling effect, rate of death” value in test [1] and in test [2] was 100% each time.

For the molecule `CSCC(C)NC(=O)c1c(I)cccc1C(=O)Nc1ccc(Cn2nc(C(F)(F)C(F)(F)F)nc2C(F)(F)F)cc1C` (stereo not drawn) [compound 227], the “controlling effect, rate of death” value in test [1] and in test [2] was 100% throughout.

`Cc1cc(Cn2nc(C(F)(F)C(F)(F)F)nc2C(F)(F)F)ccc1NC(=O)c1cccc(I)c1C(=O)NC(C)C[S+](C)[O-]` (stereo not drawn) [compound 229]: the “controlling effect, rate of death” value in test [1] and in test [2] was 100% in each case.

With `Cc1cc(Cn2nc(C(F)(F)C(F)(F)F)nc2C(F)(F)F)ccc1NC(=O)c1cccc(I)c1C(=O)NC(C)CS(C)(=O)=O` (stereo not drawn) [compound 230], the “controlling effect, rate of death” value in test [1] and in test [2] was 100% each time.

Consider `Cc1cc(Cn2nc(C(F)(F)C(F)(F)F)nc2C(F)(F)F)ccc1NC(=O)c1cccc(I)c1C(=O)NC(C)CS(C)(=O)=O` (stereo not drawn) [compound 231], for which the “controlling effect, rate of death” value in test [1] and in test [2] was 100% each time.

Consider `CSCC(C)NC(=O)c1c(I)cccc1C(=O)Nc1ccc(Cn2nc(C(F)(F)F)nc2C(F)F)cc1C` (stereo not drawn) [compound 238], for which the “controlling effect, rate of death” value in test [1] and in test [2] was 100% each time.

`Cc1cc(Cn2nc(C(F)(F)F)nc2C(F)F)ccc1NC(=O)c1cccc(I)c1C(=O)NC(C)CS(C)(=O)=O` (stereo not drawn) [compound 242]: the “controlling effect, rate of death” value in test [1] and in test [2] was 100% in each case.

For `CSCC(C)NC(=O)c1c(OS(C)(=O)=O)cccc1C(=O)Nc1ccc(Cn2nc(C(F)(F)F)nc2C(F)(F)F)cc1C` (stereo not drawn) [compound 251], the “controlling effect, rate of death” value in test [1] and in test [2] was 100% in each case.

`Cc1cc(Cn2nc(C(F)(F)F)nc2C(F)(F)F)ccc1NC(=O)c1cccc(OS(C)(=O)=O)c1C(=O)NC(C)C[S+](C)[O-]` (stereo not drawn) [compound 253]: the “controlling effect, rate of death” value in test [1] and in test [2] was 100% throughout.

Take `CSCC(C)NC(=O)c1c(I)cccc1C(=O)Nc1ccc(Cc2c(C(F)(F)F)nn(C(F)F)c2OC(F)F)cc1C` (stereo not drawn) [compound 262]: the “controlling effect, rate of death” value in test [1] and in test [2] was 100% throughout.

`Cc1cc(Cc2c(C(F)(F)F)nn(C(F)F)c2OC(F)F)ccc1NC(=O)c1cccc(I)c1C(=O)NC(C)CS(C)(=O)=O` (stereo not drawn) [compound 264]: the “controlling effect, rate of death” value in test [1] and in test [2] was 100% each time.

For `CSCC(C)NC(=O)c1c(I)cccc1C(=O)Nc1ccc(Cc2c(OC(F)F)nn(C(F)F)c2C(F)(F)F)cc1C` (stereo not drawn) [compound 268], the “controlling effect, rate of death” value in test [1] and in test [2] was 100% in each case.

With `Cc1cc(Cc2c(OC(F)F)nn(C(F)F)c2C(F)(F)F)ccc1NC(=O)c1cccc(I)c1C(=O)NC(C)CS(C)(=O)=O` (stereo not drawn) [compound 270], the “controlling effect, rate of death” value in test [1] and in test [2] was 100% in each case.

Take `CSCC(C)NC(=O)c1c(I)cccc1C(=O)Nc1ccc(Cn2cc(C(F)(F)F)nc2C(F)(F)F)cc1C` (stereo not drawn) [compound 281]: the “controlling effect, rate of death” value in test [1] and in test [2] was 100% in each case.
